Test results published in patent US8173651B2, “Pyridine compounds” (Synta Pharmaceuticals Corporation, priority 2003, dated 2012).
pIC50: −log10 of the molar value.

test system: adjuvant arthritis (AA) in female Lewis rats; experiment: In vivo adjuvant arthritis assay in rats; parameters: species or system rat; conditions: oral, once a day for 7 days (day 7-14); dose-dependent; experiments repeated four times; FIG. 1
Procedure: Treatment of adjuvant arthritis in rats: Adjuvant arthritis (AA) was induced in female Lewis rats by the intracutaneous injection (base of the tail) of 0.1 mL of a 10 mg/mL bacterial suspension made from ground, heat-killed Mycobacterium tuberculosis H37Ra suspended in incomplete Freund's adjuvant. Rats were given a test compound orally once a day for 7 days (day 7-14), starting day 7 after mycobacterium induction. The development of polyarthritis was monitored daily by macroscopic inspection and assignment of an arthritis index to each animal, during the critical period (days 10 to 25 post-immunization).
The intensity of polyarthritis was scored according to the following scheme: (a) Grade each paw from 0 to 3 based on erythema, swelling, and deformity of the joints: 0 for no erythema or swelling; 0.5 if swelling is detectable in at least one joint; 1 for mild swelling and erythema; 2 for swelling and erythema of both tarsus and carpus; and 3 for ankylosis and bony deformity.
Maximum score for all 4 paws was thus 12. (b) Grade for other parts of the body: for each ear, 0.5 for redness and another 0.5 if knots are present; 1 for connective tissue swelling (saddle nose); and 1 for the presence of knots or kinks in the tail. The highest possible arthritic index was 16.
Experiments with the AA model were repeated four times.

Compound	arthritic score	development of polyarthritis
Cc1cccc(/C=N/Nc2cc(N3CCOCC3)cc(OCCN3CCOCC3)n2)c1 [Compound 14, N-(3-Methyl-benzylidene)-N′-[4-morpholin-4-yl-6-(2-morpholin-4-yl-ethoxy)-pyridin-2-yl]-hydrazine]	reproducibly reduced the arthritic score	delayed the development of polyarthritis

test system: IL-12 production in human PBMC or THP-1 cells; experiment: Human in vitro assay: inhibition of IL-12 production (ELISA) in stimulated PBMC or THP-1 cells; type: cell-based; conditions: IFNγ plus LPS or SAC stimulation
From the text: The biological activities of a heterocyclic compound can be evaluated by a number of cell-based assays. One of such assays can be conducted using cells from human peripheral blood mononuclear cells (PBMC) or human monocytic cell line (THP-1). The cells are stimulated with a combination of human interferon-γ (IFNγ) and lipopolysaccharide or a combination of IFNγ and Staphylococcus aureus Cowan I in the presence of a test compound. The level of inhibition of IL-12 production can be measured by determining the amount of p70 by using a sandwich ELISA assay with anti-human IL-12 antibodies. IC50 of the test compound can then be determined. Specifically, PBMC or THP-1 cells are incubated with the test compound. Cell viability was assessed using the bioreduction of MTS [3-(4,5-dimethylthiazol-2-yl)-5-(3-carboxymethoxyphenyl)-2-(4-sulfophenyl)-2H-tetrazolium] (Promega, Madison, Wis.).
Reagents. Staphylococcus aureus Cowan I (SAC) is obtained from Calbiochem (La Jolla, Calif.), and lipopolysaccharide (LPS, Serratia marscencens) is obtained from Sigma (St. Louis, Mo.). Human and mouse recombinant IFNγ are purchased from Boehringer Mannheim (Mannheim, Germany) and Pharmingen (San Diego, Calif.), respectively.
Human In Vitro Assay. Human PBMC were isolated by centrifugation using Ficoll-Paque (Pharmacia Biotech, Uppsala, Sweden) and prepared in RPMI medium supplemented with 10% fetal calf serum (FCS), 100 U/mL penicillin, and 100 μg/mL streptomycin. PBMC were plated in wells of a 96-well plate at a concentration of 5×10^5 cells/well, and primed by adding IFNγ (30 U/mL) for 22 h and stimulated by adding LPS (1 vg/mL), or by adding IFNγ (100 U/mL) and then stimulated by adding SAC (0.01%). A test pyridine compound was dissolved in DMSO, and added to wells of the 96-well plate. The final DMSO concentration was adjusted to 0.25% in all cultures, including the compound-free control. Human THP-1 cells were plated in wells, primed by adding IFNγ (100 U/mL) for 22 h and stimulated by adding SAC (0.025%) in the presence of different concentrations of the pyridine compound. Cell-free supernatants were taken 18 h later for measurement of cytokines. Cell viability was assessed using the bioreduction of MTS. Cell survival was estimated by determining the ratio of the absorbance in compound-treated groups versus compound-free control.
The supernatant was assayed for the amount of IL-12p40, IL-12p70, or IL-10 by using a sandwich ELISA with anti-human antibodies, i.e., a Human IL-12 p40 ELISA kit from R&D Systems (Berkeley, Calif.), and a Human IL-12 p70 or IL-10 ELISA kit from Endogen (Cambridge, Mass.). Assays were based on the manufacturer's instructions.
The biological activities of pyridine compounds were tested on human PBMC or THP-1 cells.

Compound	pIC50
COc1ccc(CCOc2cc(NN=Cc3c[nH]c4ccccc34)cc(N3CCOCC3)n2)cc1OC [Compound 1, N-{2-[2-(3,4-Dimethoxy-phenyl)-ethoxy]-6-morpholin-4-yl-pyridin-4-yl}-N′-(1H-indol-3-ylmethylene)-hydrazine]	8.00
COc1ccc(CCOc2cc(N3CCOCC3)cc(NN=Cc3c[nH]c4ccccc34)n2)cc1OC [Compound 2, N-{6-[2-(3,4-Dimethoxy-phenyl)-ethoxy]-4-morpholin-4-yl-pyridin-2-yl}-N′-(1H-indol-3-ylmethylene)-hydrazine]	8.30
COc1ccc(CCOc2cc(NN=Cc3c[nH]c4ccccc34)nc(N3CCOCC3)c2)cc1OC [Compound 3, N-{4-[2-(3,4-Dimethoxy-phenyl)-ethoxy]-6-morpholin-4-yl-pyridin-2-yl}-N′-(1H-indol-3-ylmethylene)-hydrazine]	6.10
COc1ccc(CCOc2cc(N3CCOCC3)cc(Nc3ccc4[nH]c(C)c(C)c4c3)n2)cc1OC [Compound 4, {6-[2-(3,4-Dimethoxy-phenyl)-ethoxy]-4-morpholin-4-yl-pyridin-2-yl}-(2,3-dimethyl-1H-indol-5-yl)-amine]	6.71
COc1ccc(CCOc2cc(NN=Cc3cccc(C)c3)nc(N3CCOCC3)c2)cc1OC [Compound 5, N-{4-[2-(3,4-Dimethoxy-phenyl)-ethoxy]-6-morpholin-4-yl-pyridin-2-yl}-N′-(3-methyl-benzylidene)-hydrazine]	5.70
COc1ccc(CCOc2cc(NN=Cc3cccc(C)c3)cc(N3CCOCC3)n2)cc1OC [Compound 6, N-{2-[2-(3,4-Dimethoxy-phenyl)-ethoxy]-6-morpholin-4-yl-pyridin-4-yl}-N′-(3-methyl-benzylidene)-hydrazine]	8.30
COc1ccc(CCOc2cc(N3CCOCC3)cc(NN=Cc3cccc(C)c3)n2)cc1OC [Compound 7, N-{6-[2-(3,4-Dimethoxy-phenyl)-ethoxy]-4-morpholin-4-yl-pyridin-2-yl}-N′-(3-methyl-benzylidene)-hydrazine]	7.85
COc1ccc(CCOc2cc(Nc3ccc4[nH]c(C)c(C)c4c3)cc(N3CCOCC3)n2)cc1OC [Compound 8, {2-[2-(3,4-Dimethoxy-phenyl)-ethoxy]-6-morpholin-4-yl-pyridin-4-yl}-(2,3-dimethyl-1H-indol-5-yl)-amine]	7.55
COc1ccc(CCOc2cc(Nc3ccc4[nH]c(C)c(C)c4c3)nc(N3CCOCC3)c2)cc1OC [Compound 9, {4-[2-(3,4-Dimethoxy-phenyl)-ethoxy]-6-morpholin-4-yl-pyridin-2-yl}-(2,3-dimethyl-1H-indol-5-yl)-amine]	6.46
COc1ccc(CCOc2cc(Nc3cccc(C)c3)nc(N3CCOCC3)c2)cc1OC [Compound 10, {4-[2-(3,4-Dimethoxy-phenyl)-ethoxy]-6-morpholin-4-yl-pyridin-2-yl}-m-tolyl-amine]	5.30
Cc1cccc(C=NNc2cc(OCCN3CCOC3=O)cc(N3CCOCC3)n2)c1 [Compound 11, 3-(2-{2-[N′-(3-methyl-benzylidene)-hydrazino]-6-morpholin-4-yl-pyridin-4-yloxy}-ethyl)oxazolidin-2-one]	6.03
Cc1cccc(C=NNc2nc(OCCN3CCOCC3)c(F)c(N3CCOCC3)c2F)c1 [Compound 12, N-[3,5-Difluoro-4-morpholin-4-yl-6-(2-morpholin-4-yl-ethoxy)-pyridin-2-yl]-N′-(3-methyl-benzylidene)-hydrazine]	< 6.00
Cc1cccc(/C=N/Nc2c(F)c(OCCN3CCOCC3)nc(N3CCOCC3)c2F)c1 [Compound 13, N-[3,5-Difluoro-2-morpholin-4-yl-6-(2-morpholin-4-yl-ethoxy)-pyridin-4-yl]-N′-(3-methyl-benzylidene)-hydrazine]	6.83
Cc1cccc(/C=N/Nc2cc(N3CCOCC3)cc(OCCN3CCOCC3)n2)c1 [Compound 14, N-(3-Methyl-benzylidene)-N′-[4-morpholin-4-yl-6-(2-morpholin-4-yl-ethoxy)-pyridin-2-yl]-hydrazine]	7.60
C(=N\Nc1cc(N2CCOCC2)cc(OCCN2CCOCC2)n1)/c1c[nH]c2ccccc12 [Compound 16, N-(1H-Indol-3-ylmethylene)-N′-[4-morpholin-4-yl-6-(2-morpholin-4-yl-ethoxy)-pyridin-2-yl]-hydrazine]	7.44
Cc1cccc(/C=N/N(C)c2cc(N3CCOCC3)cc(OCCN3CCOCC3)n2)c1 [Compound 17, N-Methyl-N′-(3-methyl-benzylidene)-N-[4-morpholin-4-yl-6-(2-morpholin-4-yl-ethoxy)-pyridin-2-yl]-hydrazine]	7.85
Cc1cccc(/C=N/Nc2cc(OCCN3CCOC3=O)cc(N3CCOCC3)n2)c1 [Compound 18, 3-(2-{2-[N′-(3-Methyl-benzylidene)-hydrazino]-6-morpholin-4-yl-pyridin-4-yloxy}-ethyl)-oxazolidin-2-one]	6.03
C(=N\Nc1cc(N2CCOCC2)cc(OCCN2CCOCC2)n1)/c1ccoc1 [Compound 19, N-Furan-3-ylmethylene-N′-[4-morpholin-4-yl-6-(2-morpholin-4-yl-ethoxy)-pyridin-2-yl]-hydrazine]	5.30
Cc1ccc(N)c(/C=N/Nc2cc(N3CCOCC3)cc(OCCN3CCOCC3)n2)c1 [Compound 20, 4-Methyl-2-{[4-morpholin-4-yl-6-(2-morpholin-4-yl-ethoxy)-pyridin-2-yl]-hydrazonomethyl}-phenylamine]	7.94
Cc1cccc(/C=N/Nc2cc(N3CCOCC3)cc(OCCN3CCOCC3)[n+]2[O-])c1 [Compound 21, N-(3-Methyl-benzylidene)-N′-[4-morpholin-4-yl-6-(2-morpholin-4-yl-ethoxy)-1-oxy-pyridin-2-yl]-hydrazine]	7.07
